According to ChEMBL document CHEMBL3880383, “2-oxo-1-pyrrolidine derivative and its pharmaceutical uses” (2004):
pKi: −log10 of the molar value.

What was measured:
[1] = biological target: Synaptic vesicle glycoprotein 2A (Rattus norvegicus, UniProt Q02563); test: Displacement of [3H]-2-[4-(3-azidophenyl)-2-oxo-1-pyrrolidinyl]butanamide from SV2A levetiracetam binding site in Sprague-Dawley rat cerebral cortex membranes after 120 mins by liquid scintillation counting method; set-up: species or system Membrane
Chain of Synaptic vesicle glycoprotein 2A (Q02563 whole entry): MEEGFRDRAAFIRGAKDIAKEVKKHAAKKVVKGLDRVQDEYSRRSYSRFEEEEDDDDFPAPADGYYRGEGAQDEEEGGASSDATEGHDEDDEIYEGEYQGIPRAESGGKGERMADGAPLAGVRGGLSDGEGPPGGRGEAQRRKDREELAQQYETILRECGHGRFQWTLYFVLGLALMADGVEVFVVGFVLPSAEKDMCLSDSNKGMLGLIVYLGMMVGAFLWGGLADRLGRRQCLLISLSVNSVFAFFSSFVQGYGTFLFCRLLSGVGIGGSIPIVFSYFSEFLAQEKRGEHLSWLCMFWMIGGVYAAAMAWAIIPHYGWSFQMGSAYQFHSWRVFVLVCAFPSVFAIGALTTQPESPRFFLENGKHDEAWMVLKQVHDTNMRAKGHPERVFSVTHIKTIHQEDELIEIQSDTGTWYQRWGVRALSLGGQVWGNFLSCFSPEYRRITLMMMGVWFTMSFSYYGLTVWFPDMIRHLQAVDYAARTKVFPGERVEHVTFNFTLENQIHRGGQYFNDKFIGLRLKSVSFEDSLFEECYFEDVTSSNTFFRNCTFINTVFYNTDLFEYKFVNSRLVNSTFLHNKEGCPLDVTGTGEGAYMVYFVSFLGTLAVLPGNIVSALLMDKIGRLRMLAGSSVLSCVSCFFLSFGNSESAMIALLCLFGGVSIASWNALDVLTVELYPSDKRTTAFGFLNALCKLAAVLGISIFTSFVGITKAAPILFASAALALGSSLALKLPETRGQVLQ

Mus musculus = test: Anticonvulsant activity in ip dosed sound susceptible DBA mouse model assessed as protection against audiogenic seizure-induced wild running, clonic and tonic convulsion administered 60 mins prior to induction of audiogenic seizures measured for 30 secs; type: functional
[2] = Mus musculus, DBA, ip, read-out: ED50

Structure (SMILES) | pKi [1] | ED50 (Mus musculus; [2]) [µmol/kg] | ED50 (Mus musculus) [µmol/kg]
CCC(C(N)=O)N1CC(C=C(F)F)CC1=O (stereo not drawn) | ≥ 6.00 | 100 | –
CCC(C(N)=O)N1CC(c2ccco2)CC1=O (stereo not drawn) | ≥ 6.00 | 100 | –
CCC(C(N)=O)N1CC(c2ccccc2F)CC1=O (stereo not drawn) | ≥ 6.00 | 100 | –
CC[C@@H](C(N)=O)N1CC(C#CBr)CC1=O (stereo partly drawn) | ≥ 6.00 | 100 | –
CCCC1CC(=O)N(C(CC)C(N)=O)C1 (stereo not drawn) | ≥ 6.00 | 100 | –
CCCC(CN[C@@H](CC)C(N)=O)CC(=O)OCC (stereo partly drawn) | – | 100 | –
CCC(C(N)=O)N1CC(C#CBr)CC1=O (stereo not drawn) | ≥ 6.00 | 100 | –
C=CCC1CC(=O)N([C@@H](CC)C(N)=O)C1 (stereo partly drawn) | ≥ 6.00 | 100 | –
CC[C@@H](C(N)=O)N1C[C@@H](C=C(Br)Br)CC1=O | ≥ 6.00 | 100 | –
CC[C@@H](C(N)=O)N1C[C@H](C=C(F)F)CC1=O [SELETRACETAM] | ≥ 6.00 | 100 | –
C=CCC(C(N)=O)N1CC(CCC)CC1=O (stereo not drawn) | ≥ 6.00 | – | –
CCC(C(N)=O)N1CC(C=C(C)C)CC1=O (stereo not drawn) | ≥ 6.00 | 100 | –
CC[C@@H](C(N)=O)N1CC(CC(C)(C)C)CC1=O (stereo partly drawn) | ≥ 6.00 | – | –
CCCCOC(=O)CC(CCC)CN[C@@H](CC)C(N)=O (stereo partly drawn) | – | 100 | –
CCC[C@@H](C(N)=O)N1C[C@H](CI)CC1=O | ≥ 6.00 | 100 | –
CC[C@@H](C(N)=O)N1CC(CCCc2ccccc2)CC1=O (stereo partly drawn) | ≥ 6.00 | 100 | –
CCCC1CC(=O)N(C(Cc2cscn2)C(N)=O)C1 (stereo not drawn) | ≥ 6.00 | – | –
CC[C@@H](C(N)=O)N1CC(CC(C)=O)CC1=O (stereo partly drawn) | ≥ 6.00 | 100 | –
CC[C@@H](C(N)=O)N1CC(c2cccs2)CC1=O (single isomer, unassigned; diastereomer 1) | – | 100 | –
CCC(C(N)=O)N1CC(c2cc(C(F)(F)F)cc(C(F)(F)F)c2)CC1=O (stereo not drawn) | ≥ 6.00 | – | –
CC[C@@H](C(N)=O)N1C[C@@H](C=C(F)F)CC1=O | ≥ 6.00 | 100 | –

Structure (SMILES) | pKi [1] | ED50 (Mus musculus; [2]) [µmol/kg] | ED50 (Mus musculus) [µmol/kg]
CCC(C(N)=O)N1C[C@H](CC(C)(F)F)CC1=O (stereo partly drawn) | ≥ 6.00 | 100 | –
CC[C@@H](C(N)=O)N1CC(c2ccc(N=[N+]=[N-])cc2)CC1=O (stereo partly drawn) | ≥ 6.00 | 100 | –
CC[C@@H](C(N)=O)N1CC(c2ccsc2)CC1=O (stereo partly drawn) | ≥ 6.00 | 100 | –
CCC(C(N)=O)N1CC(c2cccc(C)c2)CC1=O (stereo not drawn) | ≥ 6.00 | 100 | –
CCCCC1CC(=O)N(C(CC)C(N)=O)C1 (stereo not drawn) | ≥ 6.00 | 100 | –
CCCC1CC(=O)N(C(CC2CC2)C(N)=O)C1 (stereo not drawn) | ≥ 6.00 | – | –
CCCC1(C)CC(=O)N([C@@H](CC)C(N)=O)C1 (stereo partly drawn) | ≥ 6.00 | 100 | –
CC[C@@H](C(N)=O)N1CC(CI)CC1=O (stereo partly drawn) | ≥ 6.00 | 100 | –
CC[C@@H](C(=O)NC)N1C[C@H](CI)CC1=O | ≥ 6.00 | 100 | –
CCC(C(N)=O)N1CC(c2ccc(Cl)cc2Cl)CC1=O (stereo not drawn) | ≥ 6.00 | 100 | –
CCCCCC1CC(=O)N(C(CC)C(N)=O)C1 (stereo not drawn) | ≥ 6.00 | – | –
CCC(C(N)=O)N1CC(CI)CC1=O (stereo not drawn) | ≥ 6.00 | – | –
CC[C@@H](C(N)=O)N1C[C@H](C=C(Br)Br)CC1=O | ≥ 6.00 | 100 | –
CC[C@@H](C(N)=O)N1CC(CCl)CC1=O (stereo partly drawn) | ≥ 6.00 | 100 | –
CC[C@@H](C(N)=O)N1CC(c2cccc(OC)c2)CC1=O (stereo partly drawn) | ≥ 6.00 | – | –
CCC(C(N)=O)N1CC(/C=C\F)CC1=O (stereo not drawn) | ≥ 6.00 | 100 | –
CCCC1CC(=O)N(C(CCC)C(N)=O)C1 (stereo not drawn) | ≥ 6.00 | – | –
CCC(C(N)=O)N1CC(c2nccs2)CC1=O (stereo not drawn) | ≥ 6.00 | 100 | –
CC[C@@H](C(N)=O)N1CC(CBr)CC1=O (stereo partly drawn) | ≥ 6.00 | 100 | –
CCC(C(N)=O)N1CC(c2ccc(Cl)c(Cl)c2)CC1=O (stereo not drawn) | ≥ 6.00 | 100 | –
CCC1CC(=O)N([C@@H](CC)C(N)=O)C1 (stereo partly drawn) | ≥ 6.00 | 100 | –

Structure (SMILES) | pKi [1] | ED50 (Mus musculus; [2]) [µmol/kg] | ED50 (Mus musculus) [µmol/kg]
CC[C@H](C(N)=O)N1CC(C=C(Cl)Cl)CC1=O (stereo partly drawn) | ≥ 6.00 | 100 | –
CCC(C(N)=O)N1CC(c2cccc(Cl)c2)CC1=O (stereo not drawn) | ≥ 6.00 | 100 | –
CC[C@@H](C(N)=O)N1C[C@H](CN=[N+]=[N-])CC1=O | ≥ 6.00 | 100 | –
CCC(C(N)=O)N1CC(c2ccccc2C(F)(F)F)CC1=O (stereo not drawn) | ≥ 6.00 | – | –
CCC[C@@H]1CC(=O)N([C@@H](CC)C(N)=O)C1 [BRIVARACETAM] | ≥ 6.00 | 100 | –
CC[C@@H](C(N)=O)N1CC(n2cccc2)CC1=O (stereo partly drawn) | ≥ 6.00 | 100 | –
CCCC(CN[C@@H](CC)C(N)=O)CC(=O)OCCC12CC3CC(CC(C3)C1)C2 (stereo partly drawn) | – | 100 | –
CC[C@@H](C(N)=O)N1CC(CSC)CC1=O (stereo partly drawn) | ≥ 6.00 | 100 | –
CC[C@@H](C(N)=O)N1CC(CC2CC2)CC1=O (stereo partly drawn) | ≥ 6.00 | 100 | –
CC[C@@H](C(N)=O)N1CC(COS(=O)(=O)c2ccc(C)cc2)CC1=O (stereo partly drawn) | ≥ 6.00 | 100 | –
CC[C@@H](C(N)=O)N1CC(c2ccccc2OC)CC1=O (stereo partly drawn) | ≥ 6.00 | – | –
CC[C@@H](C(N)=O)N1C[C@H](CI)CC1=O | ≥ 6.00 | 100 | –
C=C[C@H]1CC(=O)N([C@@H](CC)C(N)=O)C1 | ≥ 6.00 | 100 | –
CC[C@@H](C(N)=O)N1CC(CO[N+](=O)[O-])CC1=O (stereo partly drawn) | ≥ 6.00 | 100 | –
CC[C@@H](C(N)=O)N1CC(CC(C)I)CC1=O (stereo partly drawn) | ≥ 6.00 | 100 | –
C#CC1CC(=O)N(C(CC)C(N)=O)C1 (stereo not drawn) | ≥ 6.00 | 100 | –
C[C@@H](C(N)=O)N1C[C@H](CI)CC1=O | ≥ 6.00 | 100 | –
CCC(C(N)=O)N1CC(CC2CC2)CC1=O (stereo not drawn) | ≥ 6.00 | 100 | –
CC[C@@H](C(N)=O)N1CC(CCc2ccccc2)CC1=O (stereo partly drawn) | ≥ 6.00 | – | –
CCC(C(N)=O)N1CC(CC(C)C)CC1=O (stereo not drawn) | ≥ 6.00 | 100 | –
CCCC1CC(=O)N(C(C)C(N)=O)C1 (stereo not drawn) | ≥ 6.00 | – | –

Structure (SMILES) | pKi [1] | ED50 (Mus musculus; [2]) [µmol/kg] | ED50 (Mus musculus) [µmol/kg]
C=C[C@@H]1CC(=O)N([C@@H](CC)C(N)=O)C1 | ≥ 6.00 | 100 | –
CC[C@@H](C(N)=O)N1CC(c2ccccc2)CC1=O (stereo partly drawn) | ≥ 6.00 | 100 | –
CC[C@@H](C(N)=O)N1CC(Cn2cnnn2)CC1=O (stereo partly drawn) | ≥ 6.00 | 100 | –
CC[C@@H](C(N)=O)N1CC(CCC(F)(F)F)CC1=O (stereo partly drawn) | ≥ 6.00 | 100 | –
CCC(C(N)=O)N1CC(CC(F)F)CC1=O (stereo not drawn) | ≥ 6.00 | – | –
CCC(C(N)=O)N1CC(c2ccccc2Br)CC1=O (stereo not drawn) | ≥ 6.00 | 100 | –
CC[C@@H](C(N)=O)N1CC(c2cccs2)CC1=O (single isomer, unassigned; diastereomer 2) | ≥ 6.00 | – | 100
CC[C@@H](C(N)=O)N1CC(CN=C=S)CC1=O (stereo partly drawn) | ≥ 6.00 | – | –
CCC[C@H]1CC(=O)N([C@@H](CC)C(N)=O)C1 | ≥ 6.00 | 100 | –
CC[C@@H](C(N)=O)N1CC(c2cccc(Br)c2)CC1=O (stereo partly drawn) | ≥ 6.00 | 100 | –
CCCC(CN[C@@H](CC)C(N)=O)CC(=O)OC(C)C (stereo partly drawn) | – | 100 | –
CCC(C(N)=O)N1CC(c2cccnc2)CC1=O (stereo not drawn) | ≥ 6.00 | 100 | –
CC[C@@H](C(N)=O)N1CC(c2cc(Br)cc(Br)c2)CC1=O (stereo partly drawn) | ≥ 6.00 | 100 | –
CC[C@@H](C(N)=O)N1CC(c2cccc(N=[N+]=[N-])c2)CC1=O (stereo partly drawn) | ≥ 6.00 | 100 | –
CC[C@@H](C(N)=O)N1CC(c2ccc(-c3ccccc3)cc2)CC1=O (stereo partly drawn) | ≥ 6.00 | – | –
CCC(C(N)=O)N1CC(C=C(Br)Br)CC1=O (stereo not drawn) | ≥ 6.00 | 100 | –
C=CC1CC(=O)N(C(CC)C(N)=O)C1 (stereo not drawn) | ≥ 6.00 | 100 | –
CCC(C(N)=O)N1CC(c2ccc(Cl)cc2)CC1=O (stereo not drawn) | ≥ 6.00 | – | –
CC[C@@H](C(N)=O)N1CC(n2cccc2Br)CC1=O (stereo partly drawn) | ≥ 6.00 | 100 | –
CCC(C(N)=O)N1CC(CS(=O)(=O)c2ccccc2)CC1=O (stereo not drawn) | ≥ 6.00 | – | –
